Reference: ChEMBL document CHEMBL1201862, “PubChem BioAssay data set” (2004)
Activity calls are given as the source filed them.

What was measured:
[1] = non-specific 3'UTR reporter inhibition in Clone20-Shn3RL – cell-based, Renilla luciferase, cherry-picked, counter-screen for Shn3 inhibitor project, dose response (AID 624133); type: functional
[2] = reduction of Shn3 3'UTR-driven luciferase in osteoblasts – cell-based, Clone20 osteoblasts, firefly luciferase, cherry-picked, dose response (AID 624132); type: functional;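 note: firefly luciferase luminescence from reporter carrying the Shn3 3'UTR in osteoblasts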
[3] = molecular target: T1, COUP transcription factor 2 (Homo sapiens, UniProt P24468); assay: Luminescence-based cell-based high throughput dose response assay to identify inhibitors of COUP-TFII (NR2F2).; type: functional;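 note: HEK293 cells transiently cotransfected with COUP-TFII expression vector and reporter; luciferase reporter luminescence driven by COUP-TFII from the pX2-168 reporter plasmid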
T1 sequence (P24468 whole entry): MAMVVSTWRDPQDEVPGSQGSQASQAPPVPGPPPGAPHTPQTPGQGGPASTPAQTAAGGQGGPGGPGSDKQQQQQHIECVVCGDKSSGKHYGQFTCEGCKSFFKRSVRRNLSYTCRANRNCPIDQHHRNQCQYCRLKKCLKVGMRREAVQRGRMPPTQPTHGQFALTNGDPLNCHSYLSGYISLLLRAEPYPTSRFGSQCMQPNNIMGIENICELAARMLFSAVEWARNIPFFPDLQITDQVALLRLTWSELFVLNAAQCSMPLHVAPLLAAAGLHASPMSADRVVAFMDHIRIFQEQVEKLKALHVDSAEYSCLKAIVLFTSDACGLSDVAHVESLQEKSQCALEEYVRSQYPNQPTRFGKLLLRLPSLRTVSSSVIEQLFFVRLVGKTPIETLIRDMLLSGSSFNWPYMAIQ

Galanin receptor type 3 = molecular target: T2, Galanin receptor type 3 (Homo sapiens, UniProt O60755); assay: Fluorescence-based cell-based primary high throughput dose response assay to identify antagonists of the Galanin Receptor 3 (GalR3).; type: functional
T2 sequence (O60755 whole entry): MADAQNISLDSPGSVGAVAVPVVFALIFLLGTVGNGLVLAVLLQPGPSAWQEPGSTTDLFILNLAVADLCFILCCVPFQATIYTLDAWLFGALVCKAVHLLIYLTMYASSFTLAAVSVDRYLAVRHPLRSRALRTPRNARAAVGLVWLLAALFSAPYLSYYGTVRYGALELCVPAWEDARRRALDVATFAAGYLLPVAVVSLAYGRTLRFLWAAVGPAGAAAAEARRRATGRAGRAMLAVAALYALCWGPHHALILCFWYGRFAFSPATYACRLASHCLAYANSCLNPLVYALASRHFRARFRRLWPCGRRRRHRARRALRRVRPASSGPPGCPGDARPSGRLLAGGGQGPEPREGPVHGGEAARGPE

cells = type: functional, cell-based; conditions: HEK-CNG
[4] = loss of viability in HepG2 cells – cell-based, CellTiter-Glo, cherry-picked, cytotoxicity control for Shn3 inhibitor project, dose response (AID 624134); type: functional
[5] = HEK-293T viability loss after treatment – luminescence, T-cell screen hits, cytotoxicity control for TCR NF-kB inhibitor project, dose response (AID 489026); type: functional, cell-based;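 note: cells exposed to compound about 14 hours before the viability readout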
[6] = HIV-1 Vif–A3G interaction blockers – biochemical, TR-FRET, GST-Vif 1-94, biotin-A3G peptide, dose response retest, primary screen (AID 1117319); type: functional;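 note: TR-FRET signal of purified GST-Vif binding a biotinylated A3G peptide; inhibitors lower the FRET signal by blocking Vif and A3G binding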
[7] = A Cell Based Secondary Assay To Explore Cytotoxicity of Compounds that Sensitize Mycobacterium Tuberculosis to Beta-Lactam Antibiotics.; type: functional
Vero = assay: mammalian cell viability reduction – secondary assay, cytotoxicity control for West Nile virus antiviral project, dose response (AID 1650); type: functional; conditions: Chlorocebus sabaeus
INS1 = assay: INS-1E survival protection against cytokine death – cell-based, luminescence, retest, dose response (AID 449756); type: functional; conditions: Rattus norvegicus;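 note: cell death triggered by IL-1 beta plus TNF-alpha plus IFN-gamma mixture; protective hits raise ATP signal compared with cytokine alone wells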
Paired box protein Pax-8 = Paired box protein Pax-8 (Homo sapiens, UniProt Q06710); assay: PAX8 transcriptional activity inhibition in RMG-I – RMG-I cells, luciferase, cherry-pick, dose response (AID 687027); type: functional, cell-based;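 note: luciferase reporter driven by Pax8 target thyroperoxidase promoter measured by SteadyGlo luminescence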
BJ [8] = assay: BJ-TERT-LT-ST fibroblast viability loss – cell-based, RAS-independent, luminescence, dose response (AID 1935); type: functional; conditions: Homo sapiens;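 note: BJ fibroblasts immortalized with TERT plus LT and ST oncogenes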
BJ [9] = assay: BJ-TERT fibroblast viability loss – cell-based, RAS-independent, luminescence, dose response (AID 1933); type: functional; conditions: Homo sapiens
[10] = DRD fibroblast viability loss – cell-based, non-viral oncogenic, luminescence, dose response (AID 1934); type: functional; conditions: Homo sapiens
BJ [11] = assay: cells; type: functional, cell-based; conditions: Homo sapiens
[12] = Trypanosoma cruzi growth suppression in host cells – NIH3T3 host cells, beta-gal luminescence, confirmation (AID 2044); type: functional, cell-based;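 note: intracellular parasites grown in NIH/3T3 mouse fibroblasts as host cells; luminescent beta-galactosidase reporter signal from transgenic T. cruzi replicating inside host cells; inhibitors lower the luminescence signal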
[13] = NIH3T3 cell viability loss – ATP luminescence, mouse fibroblasts, counter-screen, dose response (AID 2010); type: functional, cell-based;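 note: cells exposed to compound for about 90 hours before reading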
Aminopeptidase N = molecular target: T3, Aminopeptidase N (Plasmodium falciparum FcB1/Columbia, UniProt O96935); assay: malaria alanyl aminopeptidase activity blockers – biochemical, fluorogenic H-Leu-NHMec substrate, 1536-well (AID 1445); set-up: species or system Plasmodium falciparum 3D7, 3D7
T3 sequence (O96935 whole entry): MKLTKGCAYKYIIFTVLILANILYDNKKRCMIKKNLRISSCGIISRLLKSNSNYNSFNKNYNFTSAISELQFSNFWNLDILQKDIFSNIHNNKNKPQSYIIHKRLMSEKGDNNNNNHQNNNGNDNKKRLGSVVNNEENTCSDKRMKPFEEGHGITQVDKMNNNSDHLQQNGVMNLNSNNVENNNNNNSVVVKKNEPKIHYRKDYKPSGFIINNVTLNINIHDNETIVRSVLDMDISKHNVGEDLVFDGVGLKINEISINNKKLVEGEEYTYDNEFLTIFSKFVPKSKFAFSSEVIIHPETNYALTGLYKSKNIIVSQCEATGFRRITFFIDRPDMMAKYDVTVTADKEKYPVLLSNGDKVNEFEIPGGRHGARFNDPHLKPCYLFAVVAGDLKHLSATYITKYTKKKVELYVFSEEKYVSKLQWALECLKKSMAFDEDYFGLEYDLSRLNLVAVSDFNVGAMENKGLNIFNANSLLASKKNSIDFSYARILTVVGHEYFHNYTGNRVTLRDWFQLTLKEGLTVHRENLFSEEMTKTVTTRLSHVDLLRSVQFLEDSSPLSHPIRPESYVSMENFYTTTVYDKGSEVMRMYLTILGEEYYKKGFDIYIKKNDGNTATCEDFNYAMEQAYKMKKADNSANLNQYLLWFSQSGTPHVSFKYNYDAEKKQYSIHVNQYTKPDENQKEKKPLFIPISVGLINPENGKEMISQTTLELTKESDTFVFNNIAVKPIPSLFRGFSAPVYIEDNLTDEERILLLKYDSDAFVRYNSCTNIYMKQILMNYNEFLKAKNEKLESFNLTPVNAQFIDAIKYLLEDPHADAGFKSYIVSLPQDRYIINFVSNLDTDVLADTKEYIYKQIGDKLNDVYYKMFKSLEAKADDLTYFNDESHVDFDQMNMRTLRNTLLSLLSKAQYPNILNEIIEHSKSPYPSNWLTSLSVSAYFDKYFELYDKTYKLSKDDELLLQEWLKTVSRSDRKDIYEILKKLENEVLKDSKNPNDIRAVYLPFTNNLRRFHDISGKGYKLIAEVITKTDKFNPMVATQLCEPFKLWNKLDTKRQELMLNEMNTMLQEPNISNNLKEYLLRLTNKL

[14] = molecular target: T4, RNA-editing ligase 1, mitochondrial (Trypanosoma brucei brucei, UniProt P86926); assay: inhibition of trypanosome RNA editing ligase – biochemical, fluorescence, Trypanosoma brucei, dose response (AID 1117295); type: functional
T4 sequence (P86926 whole entry): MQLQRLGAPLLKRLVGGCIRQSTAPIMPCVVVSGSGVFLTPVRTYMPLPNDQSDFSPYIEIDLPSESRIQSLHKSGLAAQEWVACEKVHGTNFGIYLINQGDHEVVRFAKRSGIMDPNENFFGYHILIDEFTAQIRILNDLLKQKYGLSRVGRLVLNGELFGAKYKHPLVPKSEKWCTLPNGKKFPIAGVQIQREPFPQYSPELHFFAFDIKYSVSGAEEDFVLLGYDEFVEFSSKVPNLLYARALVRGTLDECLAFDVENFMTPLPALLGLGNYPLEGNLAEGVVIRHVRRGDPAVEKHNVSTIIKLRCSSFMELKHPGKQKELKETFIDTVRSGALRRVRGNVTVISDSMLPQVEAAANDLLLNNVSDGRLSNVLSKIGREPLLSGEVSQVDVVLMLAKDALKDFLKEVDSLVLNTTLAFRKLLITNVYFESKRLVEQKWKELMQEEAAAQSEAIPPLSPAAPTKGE

[15] = molecular target: FAD-linked sulfhydryl oxidase ALR (Homo sapiens, UniProt P55789); assay: ALR-catalysed DTT oxidation blockers – biochemical, H2O2 detection, luminescence, cherry-pick, dose response (AID 493248)
Sequence of FAD-linked sulfhydryl oxidase ALR (P55789 whole entry): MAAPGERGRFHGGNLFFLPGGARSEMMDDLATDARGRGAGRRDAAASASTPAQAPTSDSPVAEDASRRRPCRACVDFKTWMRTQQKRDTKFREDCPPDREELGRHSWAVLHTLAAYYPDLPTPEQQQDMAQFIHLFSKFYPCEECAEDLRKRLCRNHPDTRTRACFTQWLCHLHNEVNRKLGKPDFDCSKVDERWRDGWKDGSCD

Sequence of Paired box protein Pax-8 (Q06710 whole entry): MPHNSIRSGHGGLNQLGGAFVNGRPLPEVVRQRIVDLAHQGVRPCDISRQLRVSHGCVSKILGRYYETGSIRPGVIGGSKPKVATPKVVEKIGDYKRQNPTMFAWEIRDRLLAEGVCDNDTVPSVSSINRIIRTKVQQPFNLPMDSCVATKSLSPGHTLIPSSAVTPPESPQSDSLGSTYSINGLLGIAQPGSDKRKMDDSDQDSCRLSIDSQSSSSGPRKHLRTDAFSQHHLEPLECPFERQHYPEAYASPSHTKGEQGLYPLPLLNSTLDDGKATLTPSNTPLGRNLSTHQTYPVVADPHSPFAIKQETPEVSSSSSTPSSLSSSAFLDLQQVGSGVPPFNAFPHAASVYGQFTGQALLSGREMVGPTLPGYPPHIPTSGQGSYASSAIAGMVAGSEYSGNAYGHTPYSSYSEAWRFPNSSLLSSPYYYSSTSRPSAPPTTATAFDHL

Structure (SMILES): Cc1oc(-c2ccc(Cl)cc2)nc1C[S+]([O-])CC(=O)NCCCN1CCN(Cc2ccccc2)CC1 (stereo not given)
- AC50 [1]: 4.29 µM (active)
- AC50 [2]: 2.52 µM (active)
- IC50 [3]: 4.34 µM (active)
- IC50 (Galanin receptor type 3): 2.03 µM (active)
- EC50 (cells): > 29.9 µM (inactive)
- AC50 [4]: 1.69 µM (active)
- IC50 [5]: > 80 µM (inactive)

Structure (SMILES): Cc1cc(C)nc(N2CCC(C(=O)O)CC2)n1
- IC50 [6]: > 100 µM (active)

Structure (SMILES): O=C(Nc1cccc(C(F)(F)F)c1)N1CCC(c2nc(-c3ccc(F)cc3)no2)CC1
- CC50 [7]: > 40 µM (active)
- CC50 (Vero): 12.6 µM (active)

Structure (SMILES): CCOc1ccc(NC(=O)C2CCCN(S(=O)(=O)c3c(C)n[nH]c3C)C2)cc1 (stereo not given)
- IC50 [6]: > 100 µM (active)

Structure (SMILES): O=C(NC(Nc1nc2ccc([N+](=O)[O-])cc2s1)(C(F)(F)F)C(F)(F)F)c1cccnc1
- AC50 (INS1): 2.6 µM (active)
- AC50 (Paired box protein Pax-8): 1.86 µM (active)
- EC50 (BJ [8]): 11.4 µM (active)
- EC50 (BJ [9]): 8.85 µM (inconclusive)
- EC50 [10]: 10.4 µM (active)
- EC50 (BJ [11]): 4.98 µM (active)
- IC50 [3]: 8.8 µM (active)
- IC50 (Galanin receptor type 3): > 1.11 µM (active)
- EC50 (cells): > 29.9 µM (inactive)
- EC50 [12]: 1.38 µM (active)
- EC50 [13]: < 6 µM (inconclusive)

Structure (SMILES): Nc1ccc(-c2nc3ccc(N)cc3[nH]2)cc1
- IC50 (Aminopeptidase N): 49.9 µM (active)
- IC50 [14]: 46.1 µM (inactive)
- AC50 [15]: 2.55 µM (active)
